This note sets out measurements from patent US20080070867A1, “2-Imidazolone and 2-Imidazolidinone Heterocyclic Inhibitors of Tyrosine Phosphatases” (Metabasis Therapeutics, Inc., priority 2005, published 2008).

In the assay the target is T1, Human recombinant PTP-1B (Homo sapiens, UniProt P18031).
T1 construct: Human recombinant PTP-1B, containing amino acids 1-321, fused to GST enzyme; GST (glutathione S-transferase)
T1 sequence (P18031 1-321): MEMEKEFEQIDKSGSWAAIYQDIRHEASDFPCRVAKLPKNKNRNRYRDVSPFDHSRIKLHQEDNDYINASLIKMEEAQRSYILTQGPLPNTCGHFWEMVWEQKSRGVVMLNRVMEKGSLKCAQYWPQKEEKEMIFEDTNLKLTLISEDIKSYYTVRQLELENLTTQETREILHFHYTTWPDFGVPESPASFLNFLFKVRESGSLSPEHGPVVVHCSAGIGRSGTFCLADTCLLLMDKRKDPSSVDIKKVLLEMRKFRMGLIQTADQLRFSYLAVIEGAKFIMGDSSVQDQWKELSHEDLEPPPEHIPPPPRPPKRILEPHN
The experiment in a line: Assay for PTP-1B Activity (pNPP substrate). Conditions: human recombinant PTP-1B (1-321) GST fusion, 2 mM pNPP, pH 7.4, 30° C., 20 min; read-out: Activity Code (IC50 range). The class given is biochemical. The text has this:
The activity of the compounds as modulators of protein tyrosine phosphatase, including PTP-1B, may be measured in standard assays (see, e.g., Examples 41 and 42). Briefly, the assay described herein employs human recombinant PTP-1B and a pNPP substrate in a rescue assay.
Assay for PTP-1B Activity
Enzyme: Human recombinant PTP-1B, containing amino acids 1-321, fused to GST enzyme (glutathione S-transferase) purified by affinity chromatography (Huyer et al, 1997, J. Biol. Chem., 272, 843-852).
pNPP: p-Nitrophenyl Phosphate (Calbiochem)
Assay Buffer: 50 mM HEPES (pH 7.4), 100 mM NaCl, 2 mM EDTA, 3 mM DTT
(5×) pNPP substrate: 10 mM pNPP in assay buffer
Enzyme: 1 mg/ml PTP1B (1-321), dilute 1:200 in assay buffer
Assay buffer: 50 mM HEPES (pH 7.4), 100 mM NaCl, 2 mM EDTA, 3 mM DTT
Enzyme dilution buffer: 50 mM HEPES (pH 7.4), 100 mM NaCl, 2 mM EDTA, 3 mM DTT
Substrate 198 mM p-Nitrophenyl Phosphate (pNPP) store at 4° C.
The assay was carried out at 30° C. in 96 well plates. The reaction mixture in 60 ul contained 50 mM HEPES (pH 7.4), 100 mM NaCl, 2 mM EDTA, 3 mM DTT, and 2 mM p-Nitrophenyl Phosphate (pNPP). 5 ul of the test compound (inhibitor) dissolved in DMSO or DMSO alone for control was added to each well and the plate was mixed for 2 min. The reaction was initiated by adding 20 ul of diluted PTP1B (5 ng/ul in 50 mM HEPES (pH 7.4), 100 mM NaCl, 2 mM EDTA, 3 mM DTT). After 20 min at 30° C., the enzyme reaction was terminated by adding 100 ul of 2 M K2CO3 to each well. The phosphatase activity was detected by using Victor II plate reader (Wallac) with absorbance detection at 405 nm. All the assays were done at least in duplicate. The initial rate of pNP is plotted against the concentration of inhibitor.
The term IC50 denotes the concentration that gives 50% inhibition. On to `COC(=O)COc1ccc(Cn2ccn(Cc3ccc(C(F)(F)P(=O)(O)O)c(Br)c3)c2=O)cc1Cl` [Compound 82, (4-{3-[3-Bromo-4-(difluoro-phosphono-methyl)-benzyl]-2-oxo-2,3-dihydro-imidazol-1-ylmethyl}-2-chloro-phenoxy)-acetic acid methyl ester], for which the IC50 lay within 250 to 2500 nM.
In the case of `CCOC(=O)c1ccc(-n2ccn(Cc3ccc(C(F)(F)P(=O)(O)O)c(Br)c3)c2=O)cc1` [Compound 61, 4-{3-[3-Bromo-4-(difluoro-phosphono-methyl)-benzyl]-2-oxo-2,3-dihydro-imidazol-1-yl}-benzoic acid ethyl ester] it was 250 to 2500 nM.
For the molecule `CC(C)(Oc1ccc(-c2cn(C3CC3)c(=O)n2Cc2ccc(C(F)(F)P(=O)(O)O)c(Br)c2)cc1)C(=O)O` [Compound 74, 2-(4-{3-[3-Bromo-4-(difluoro-phosphono-methyl)-benzyl]-1-cyclopropyl-2-oxo-2,3-dihydro-1H-imidazol-4-yl}-phenoxy)-2-methyl-propionic acid], the IC50 is < 99 nM.
In the case of `CC(C)OC(=O)OC(C)OP(=O)(O)C(F)(F)c1ccc(Cn2c(-c3ccc(S(C)(=O)=O)cc3)cn(Cc3ccccc3)c2=O)cc1Br` (centres unmarked) [Compound 79, ({4-[3-Benzyl-5-(4-methanesulfonyl-phenyl)-2-oxo-2,3-dihydro-imidazol-1-ylmethyl]-2-bromo-phenyl}-difluoro-methyl)-phosphonic acid mono-(1-isopropoxy-carbonyloxy-ethyl) ester] it was 100 to 249 nM; in that of `COC(=O)c1ccc(-c2c[nH]c(=O)n2Cc2ccc(C(F)(F)P(=O)(O)O)c(Br)c2)cc1` [Compound 41, 4-{3-[3-Bromo-4-(difluoro-phosphono-methyl)-benzyl]-2-oxo-2,3-dihydro-1H-imidazol-4-yl}-benzoic acid methyl ester], 250 to 2500 nM.
In the case of `COC(=O)c1ccc(-c2cn(Cc3ccccn3)c(=O)n2Cc2ccc(C(F)(F)P(=O)(O)O)c(Br)c2)cc1` [Compound 25, 4-{3-[3-Bromo-4-(difluoro-phosphono-methyl)-benzyl]-2-oxo-1-pyridin-2-ylmethyl-2,3-dihydro-1H-imidazol-4-yl}-benzoic acid methyl ester] it was 100 to 249 nM; in that of `CS(=O)(=O)c1ccc(-c2cn(Cc3ccccc3)c(=O)n2Cc2ccc(C(F)(F)P(=O)(O)O)c(Br)c2)cc1` [Compound 17, ({4-[3-Benzyl-5-(4-methanesulfonyl-phenyl)-2-oxo-2,3-dihydro-imidazol-1-ylmethyl]-2-bromo-phenyl}-difluoro-methyl)-phosphonic acid], < 99 nM.
For `O=c1n(CC2CC2)cc(-c2ccccc2)n1Cc1ccc(C(F)(F)P(=O)(O)O)c(Br)c1` [Compound 33, {[2-Bromo-4-(3-cyclopropylmethyl-2-oxo-5-phenyl-2,3-dihydro-imidazol-1-ylmethyl)-phenyl]-difluoro-methyl}-phosphonic acid] the value was 250 to 2500 nM.
On to `O=c1n(Cc2ccc(C(F)(F)P(=O)(O)O)c(Br)c2)ccn1-c1ccccc1` [Compound 43, {[2-Bromo-4-(2-oxo-3-phenyl-2,3-dihydro-imidazol-1-ylmethyl)-phenyl]-difluoro-methyl}-phosphonic acid], for which the IC50 lay within 2500 to 25000 nM.
Regarding `CCOC(=O)c1ccc(-c2cn(Cc3ccccc3)c(=O)n2Cc2ccc(C(F)(F)P(=O)(O)O)c(Br)c2)cc1` [Compound 16, 4-{1-Benzyl-3-[3-bromo-4-(difluoro-phosphono-methyl)-benzyl]-2-oxo-2,3-dihydro-1H-imidazol-4-yl}-benzoic acid ethyl ester], the IC50 fell in the range of 250 to 2500 nM.
In the case of `O=C(O)c1ccc(-c2cn(Cc3ccccc3)c(=O)n2Cc2ccc(C(F)(F)P(=O)(O)O)c(Cl)c2)cc1` [Compound 9, 4-{1-Benzyl-3-[3-chloro-4-(difluoro-phosphono-methyl)-benzyl]-2-oxo-2,3-dihydro-1H-imidazol-4-yl}-benzoic acid] it was 250 to 2500 nM; in that of `Cn1cc(-c2ccc(C(=O)OCOC(=O)C(C)(C)C)cc2)n(Cc2ccc(C(F)(F)P(=O)(O)OCOC(=O)C(C)(C)C)c(Br)c2)c1=O` [Compound 80, 4-[3-(3-Bromo-4-{[(2,2-dimethyl-propionyloxy-methoxy)-hydroxy-phosphoryl]-difluoro-methyl}-benzyl)-1-methyl-2-oxo-2,3-dihydro-1H-imidazol-4-yl]-benzoic acid 2,2-dimethyl-propionyloxymethyl ester], 2500 to 25000 nM.
For `COC(=O)c1ccc(-c2cn(Cc3ccccc3)c(=O)n2Cc2ccc(C(F)(F)P(=O)(O)O)c(Br)c2)cc1` [Compound 6, 4-{1-Benzyl-3-[3-bromo-4-(difluoro-phosphono-methyl)-benzyl]-2-oxo-2,3-dihydro-1H-imidazol-4-yl}-benzoic acid methyl ester] the value was 100 to 249 nM.
In the case of `CCOC(=O)n1cc(-c2ccc(C#N)cc2)n(Cc2ccc(C(F)(F)P(=O)(O)O)c(Br)c2)c1=O` [Compound 75, 3-[3-Bromo-4-(difluoro-phosphono-methyl)-benzyl]-4-(4-cyano-phenyl)-2-oxo-2,3-dihydro-imidazole-1-carboxylic acid ethyl ester] it was 100 to 249 nM.
As for `COC(=O)COc1ccc(-c2cn(C3CC3)c(=O)n2Cc2ccc(C(F)(F)P(=O)(O)O)c(Br)c2)cc1` [Compound 51, (4-{3-[3-Bromo-4-(difluoro-phosphono-methyl)-benzyl]-1-cyclopropyl-2-oxo-2,3-dihydro-1H-imidazol-4-yl}-phenoxy)-acetic acid methyl ester], the IC50 was in the range of 100 to 249 nM.
On to `CS(=O)(=O)c1ccc(-c2cn(Cc3cccc(F)c3)c(=O)n2Cc2ccc(C(F)(F)P(=O)(O)O)c(Br)c2)cc1` [Compound 22, ({2-Bromo-4-[3-(3-fluoro-benzyl)-5-(4-methanesulfonyl-phenyl)-2-oxo-2,3-dihydro-imidazol-1-ylmethyl]-phenyl}-difluoro-methyl)-phosphonic acid], for which the IC50 lay within 100 to 249 nM.
In the case of `COC(=O)/C=C/c1ccc(-c2cn(C3CC3)c(=O)n2Cc2ccc(C(F)(F)P(=O)(O)O)c(Br)c2)cc1` [Compound 45, 3-(4-{3-[3-Bromo-4-(difluoro-phosphono-methyl)-benzyl]-1-cyclopropyl-2-oxo-2,3-dihydro-1H-imidazol-4-yl}-phenyl)-acrylic acid methyl ester] it was < 99 nM; in that of `O=c1[nH]ccn1Cc1ccc(C(F)(F)P(=O)(O)O)c(Br)c1` [Compound 87, {[2-Bromo-4-(2-oxo-2,3-dihydro-imidazol-1-ylmethyl)-phenyl]-difluoro-methyl}-phosphonic acid], 2500 to 25000 nM; in that of `CC(C)OC(=O)OC(C)OP(=O)(O)C(F)(F)c1ccc(Cn2c(-c3ccc(Cl)cc3)cn(Cc3ccccc3)c2=O)cc1Br` (centres unmarked) [Compound 72, ({4-[3-Benzyl-5-(4-chloro-phenyl)-2-oxo-2,3-dihydro-imidazol-1-ylmethyl]-2-bromo-phenyl}-difluoro-methyl)-phosphonic acid mono-(1-isopropoxy-carbonyloxy-ethyl) ester], 2500 to 25000 nM.
In the case of `O=c1n(Cc2ccccc2)cc(-c2ccsc2)n1Cc1ccc(C(F)(F)P(=O)(O)O)c(Br)c1` [Compound 39, {[4-(3-Benzyl-2-oxo-5-thiophen-3-yl-2,3-dihydro-imidazol-1-ylmethyl)-2-bromo-phenyl]-difluoro-methyl}-phosphonic acid] it was 250 to 2500 nM.
